Data taken from patent publication US20250163086A1, “Crystalline Forms” (Viatris Asia Pacific Pte. Ltd., priority 2016, published 2025).

Experiment: Water content of the crystalline forms (gravimetric vapour sorption, 25° C.)
Assay type: physicochemical
Conditions: water content varies as a function of relative humidity; GVS profiles 20 to 75% RH at 25° C. (FIGS. 4-6); hydrochloride
Method: Measurements were performed on an IGASORP Model HAS-036-080 moisture sorption instrument (Hiden Isochema, Warrington, UK) operated in stepping mode at 25° C. The sample was allowed to equilibrate at the starting relative humidity (RH) before starting a pre-defined humidity program in steps of 5% ΔRH and with a maximal equilibration time of 24 hours per step. About 20 to 30 mg of each sample was used.

Compound	coordinated and/or non-coordinated water comprised in the crystalline form [%]
CCCCOC(=O)N1CCN(C(=O)[C@H](CP(=O)(O)O)NC(=O)c2cc(N3CC[C@H](OC)C3)nc(-c3ccccc3)n2)CC1.Cl [Crystalline form 3, 4-((R)-2-{[6-((S)-3-methoxy-pyrrolidin-1-yl)-2-phenyl-pyrimidine-4-carbonyl]-amino}-3-phosphono-propionyl)-piperazine-1-carboxylic acid butyl ester hydrochloride]	2.5 to 8
CCCCOC(=O)N1CCN(C(=O)[C@H](CP(=O)(O)O)NC(=O)c2cc(N3CC[C@H](OC)C3)nc(-c3ccccc3)n2)CC1.Cl [Crystalline form 1, 4-((R)-2-{[6-((S)-3-methoxy-pyrrolidin-1-yl)-2-phenyl-pyrimidine-4-carbonyl]-amino}-3-phosphono-propionyl)-piperazine-1-carboxylic acid butyl ester hydrochloride]	0 to 3
CCCCOC(=O)N1CCN(C(=O)[C@H](CP(=O)(O)O)NC(=O)c2cc(N3CC[C@H](OC)C3)nc(-c3ccccc3)n2)CC1.Cl [Crystalline form 2, 4-((R)-2-{[6-((S)-3-methoxy-pyrrolidin-1-yl)-2-phenyl-pyrimidine-4-carbonyl]-amino}-3-phosphono-propionyl)-piperazine-1-carboxylic acid butyl ester hydrochloride]	5 to 10
